Counter-ions that a name gives are not always drawn. Like-named read-outs stand apart in the source and are kept apart here.
How the values were obtained:
ASG-10 [1] = experiment: CYP activities in ASG-10: metabolite formation from specific substrates (LC-TQMS); conditions: non-induced cells, combined substrates 2; 5; 10 µM, 24 h, 19 °C
CYP2K1 = system: CYP2K1; parameters: method as in doi:10.1002/etc.5620161220; conditions: juvenile Atlantic salmon; cited from earlier work
CYP3A27 = system: CYP3A27; parameters: method as in doi:10.1002/etc.5620161220; conditions: juvenile Atlantic salmon; cited from earlier work
CYP1A1 [2] = system: CYP1A1; parameters: method as in doi:10.1002/etc.5620161220; conditions: juvenile Atlantic salmon; cited from earlier work
[3] = CYP activities in salmon liver microsomes (SLMs) and S9; conditions: both SLMs (2 mg/mL protein) and S9 (4 mg/mL protein), 20 °C, up to 60 min
[4] = Incubation of N-acetylated BZ (AcBZ) in SLMs, hydroxylation; type: in vitro ADME, Atlantic salmon; conditions: AcBZ as starting substance, 1 h
Method: A volume of 30 µL of 1 mg/mL BZ in 100% MeOH was evaporated (40 °C, N2) in a 1.5 mL vial. The residue was redissolved in 100 µL acetic anhydride (Sigma) and 100 µL pyridine (Sigma). The vial was placed at room temperature for 18 h. Subsequently, the reaction was stopped by the addition of 200 µL 100% MeOH. After evaporation, the residue was dissolved in 150 µL 100% MeOH (solution A). As control, 30 µL of BZ solution was evaporated and re-dissolved in 150 µL 100% MeOH (solution B). Afterwards, 3 µL of solutions A and B were incubated in SLMs as described above.

ASG-10 [5] = experiment: BZ metabolism in ASG-10 (LC-HRMS/MS); type: in vitro ADME, Atlantic salmon (Salmo salar); conditions: 303 µM BZ, 24 h, 45,000 or 90,000 cells/well, LC-HRMS peak areas
Method: BZ, an anesthetic commonly used in aquaculture, was used to evaluate the potential activity of N-acetyltransferases (NAT) and esterases in ASG-10, SLMs and S9. The production of BZ-related metabolites was determined by liquid chromatography high-resolution tandem mass spectrometry (LC-HRMS/MS). When available, reference standards were used for the specification of metabolites.
BZ metabolism was investigated in ASG-10 cells plated in a 96-well plate as described in Section 2.2. The culture medium was replaced by fresh medium containing BZ (Table 1).
(§1) BZ biotransformation products were determined using a Q Exactive™ hybrid quadrupole-Orbitrap mass spectrometer equipped with a heated electrospray ion source (HESI-II) and coupled to a Vanquish UHPLC system (Thermo Fisher Scientific). […]
(§2) Mass spectra were acquired in the full scan mode, applying sequential data-dependent top 5 analysis (ddMS2-top5) with an inclusion list containing masses of interest. […] BZ and BZ-related compounds were determined by targeted parallel reaction monitoring (PRM). […]
The mobile phase was composed of solvent A (water) and solvent B (MeOH), both containing 0.1% formic acid. […] Raw data were acquired by Xcalibur (Version 4.0, Thermo Fisher Scientific), and molecular formula assignments and mass error were evaluated within the same software (Elemental Composition tab). […]

[6] = parameters: method as in doi:10.1016/S0166-445X(96)00792-8; conditions: channel catfish; cited from earlier work
CYP1A [7] = experiment: EROD assay in BNF-stimulated ASG-10; type: cell-based, Atlantic salmon (Salmo salar); conditions: ASG-10, BNF 1 to 100 nM, 24 h
Method: CYP1A induction in BNF-stimulated ASG-10 was measured using the ethoxyresorufin-O-deethylase (EROD) assay. CYP1A converts 7-ethoxyresorufin to resorufin, which can be measured by fluorescence spectroscopy. The assay was performed as described in [17], with minor modifications. Briefly, the cells were seeded in a black 96-well plate as described in Section 2.2. After two days, the cells were incubated with the CYP1A inducer β-naphthoflavone (BNF; 1–100 nM) for 24 h. BNF was dissolved in DMSO. The final DMSO concentration in the cell culture was 0.1%. Appropriate controls containing the same amount of DMSO were included in each experiment. The next day, the culture medium was replaced with 200 µL EROD assay media (DMEM w/o phenol red; 10% FBS, 8 µM 7-ethoxyresorufin), and resorufin fluorescence (excitation: 530 nm/emission: 580 nm) was detected after 60 min using a Spectramax i3x plate reader.

CYP1A [8] = system: CYP1A; parameters: method as in doi:10.1002/etc.5620160509; conditions: cited from earlier work
CYP1A1 [9] = system: CYP1A1; parameters: method as in PMID 12413795; conditions: BNF exposure; cited from earlier work
CYP1A [10] = system: CYP1A; parameters: method as in doi:10.1002/etc.5620160509; conditions: PLHC-1, 24 h; cited from earlier work
CYP1A [11] = system: CYP1A; parameters: method as in PMID 1897246; conditions: rainbow trout liver primary cells, 3.6 to 360 nM BNF, 48 h, dose-dependent; cited from earlier work
CYP1A [12] = system: CYP1A; parameters: method as in PMID 10630570; conditions: primary carp hepatocytes, 20 nM, 18 h; cited from earlier work
CYP1A [13] = experiment: CYP1A immunochemical analysis (immunoblot) in BNF-stimulated ASG-10; type: cell-based, Atlantic salmon (Salmo salar); conditions: 24 h
Method: The ASG-10 cells were seeded into 6-well plates as described in Section 2.2. After two days, the cells were stimulated with BNF (1–100 nM, 24 h), a well-known non-toxic inducer of CYP1A protein expression. After exposure, the cells were washed twice in ice-cold PBS and placed at −70 °C until the next day. The cells were then scraped in cell lysis buffer with 0.8% SDS and 1% proteinase inhibitor cocktail added and centrifuged (10,000× g, 1 min) through use of the QIAshredder for homogenization. The protein concentrations were quantified by using the Bio-Rad DC kit (Hercules, CA, USA) and the samples were adjusted to equal protein concentration with lysis buffer before being denatured through the addition of NuPage lithium dodecyl sulfate (LDS) sample buffer and NuPage reducing agent as described by the manufacturer (Invitrogen, Waltham, MA, USA). Blotting was performed using the NuPage Novex system from Invitrogen (Thermo Fisher), applying […] protein per well on a 4–12% NuPage BisTris gel. Separation was performed under reducing conditions for 40 min at 200 V in 3-(N-morpholino) propane sulfonic acid (MOPS)–SDS running buffer using the Novex Sharp pre-stained standard with a range of 3.5–260 kDa. […]

Zebrafish embryos = system: Zebrafish embryos; parameters: method as in PMID 27571242; conditions: 48 h exposure; cited from earlier work
ASG-10 [14] = experiment: CellTox Green cytotoxicity assay in ASG-10; type: cell-based, Atlantic salmon (Salmo salar); conditions: ASG-10, 121 or 303 µM BZ, 48 h
Method: CellTox™ Green assay: The non-toxic dye CellTox™ Green stains DNA in cells with impaired membrane integrity. Binding interactions with DNA produce a fluorescence signal that is proportional to cytotoxicity (necrotic, late apoptotic cells). CellTox™ Green dye was added to the cells as described by the manufacturer (Promega) and fluorescence visualized by microscopy (Zeiss Observer A1, Carl Zeiss, Oberkochen, Germany).

[15] = cited from earlier work
[16] = parameters: method as in doi:10.5772/intechopen.91700; conditions: cited from earlier work
[17] = cited from earlier work; remark: listed apart in the source
[18] = parameters: method as in PMID 1897251; conditions: rainbow trout, within 3 h, mainly as AcBZ; cited from earlier work
methemoglobin = system: methemoglobin; parameters: method as in PMID 32974865; conditions: immersion in a sedating BZ dose or repeated anesthesia; cited from earlier work
ASG-10 [19] = experiment: Alamar Blue assay, metabolic activity/viability of ASG-10; type: cell-based, Atlantic salmon (Salmo salar); conditions: ASG-10, 121 or 303 µM BZ, 24 h
Method: Alamar Blue assay: The metabolic activity/viability of the ASG-10 cell line was measured using the Alamar Blue assay according to the manufacturer’s protocol (Thermo Fisher). After exposure to test compounds with potential cell toxicity, Alamar Blue was added to the cell culture, and incubated for 3 h. […] The fluorescence (excitation: 555 nm/emission: 585 nm) was quantified using a Spectramax i3x plate reader (Molecular Devices, San Jose, CA, USA).

[20] = UGT activities in salmon liver microsomes (SLMs) and S9; conditions: SLMs (2 mg/mL) and S9 (4 mg/mL), 20 °C, up to 60 min
[21] = BZ metabolism in SLMs and S9 (LC-HRMS/MS); conditions: SLMs 1 µM BZ, S9 3 µM BZ (Figure 9 legend: 1 µM), 1 h
Method: The production of BZ-related metabolites was determined by liquid chromatography high-resolution tandem mass spectrometry (LC-HRMS/MS).
Additionally, BZ metabolism was investigated in SLMs (1 µM BZ) and S9 (3 µM BZ) (Table 1). The incubations were first performed separately for phase I and phase II metabolism, and a combined assay was performed afterwards. The reaction mixture (total assay volume 0.5 mL) contained 0.8 mM NADPH, 0.7 mM NADP+, 7.5 mM UDPGA and 0.3 mM UDPAG. Aliquots (150 µL) were drawn at 0, 30 and 60 min and mixed with an equal volume of ice-cold 100% MeCN. […] After filtration (Costar Spin-X® 0.22 mm Nylon filter; Corning, Inc.; Corning, NY, USA), the concentrated samples were analyzed using LC-HRMS/MS.
as §1, §2

[22] = different fish species including rainbow trout and Atlantic salmon

Cc1ncc2n1-c1ccc(Cl)cc1C(c1ccccc1F)=NC2O (stereo not shown) [4-OH-MDZ, 4-hydroxymidazolam]
Formation of metabolites of specific CYP substrates in ASG-10 (ASG-10 [1]): observed

CCCCCCCCCc1ccc(O)cc1 [4-nonylphenol]
CYP2K1 activity in liver (CYP2K1): dose-dependently reduced | CYP3A27 activity in liver (CYP3A27): dose-dependently reduced | CYP1A1 activity in liver (CYP1A1 [2]): dose-dependently reduced

O=c1[nH]c2cc(Cl)c(O)cc2o1 [6-OH-CH, 6-hydroxychlorzoxazone]
Formation of CYP-specific metabolites / substrate conversion in SLMs and S9 [3]: low

CCOC(=O)c1ccc(NC(C)=O)cc1 [AcBZ, acetylbenzocaine]
Hydroxylation product after incubation in SLMs [4]: no longer detectable | BZ metabolites produced in ASG-10 cells (ASG-10 [5]): major biotransformation product | time detected in most tissues after water exposure to BZ [6]: up to 144 h

CC(=O)Nc1ccc(C(=O)O)cc1 [AcPABA, p-acetaminobenzoic acid]
time detected in most tissues after water exposure to BZ [6]: up to 144 h

O=c1cc(-c2ccccc2)oc2ccc3ccccc3c12 [BNF, β-naphthoflavone]
CYP1A enzyme activity (EROD assay) (CYP1A [7]): concentration-dependent increase | increase in EROD enzyme activity (CYP1A [8]; PLHC-1, 100 nM BNF): eightfold | increase in EROD enzyme activity (CYP1A [8]; PLHC-1, 1 µM BNF): 100 fold | CYP1A1 induction in salmon liver (CYP1A1 [9]): can be induced | BNF concentration required to produce a detectable CYP1A protein increase (CYP1A [10]): 1 µM | maximum EROD rate increase (CYP1A [11]): nine-fold | increase in the EROD rate (CYP1A [12]): 30 fold | CYP1A protein increase (CYP1A [13]; ASG-10, 1 nM BNF): visible CYP1A protein increase | CYP1A protein (immunochemical analysis) (CYP1A [13]; ASG-10, BNF 1 to 100 nM): concentration-dependent increase

CCOC(=O)c1ccc(N)cc1 [BZ, ethyl 4-aminobenzoate]
AcBZ and PABA together as share of the total BZ amount (Zebrafish embryos): 90% | time detected in most tissues after water exposure to BZ [6]: up to 144 h | Cytotoxicity (Celltox Green assay) (ASG-10 [14]): no cytotoxicic effects | distribution volumes [15, 22]: rather high | mean residence times [15, 22]: below 15 min | plasma half-life ([15]; salmonids): less than 2 h | time to maximal concentrations in blood ([15]; under water exposure): less than 2 min | n-octanol/water coefficient (pKOW) [16]: 1.44 | solubility in more lipidic solvents relative to water ([17]; MeOH and chloroform): ~1000 times | water solubility ([17]; non-salt BZ, 20 °C): 400 µg/mL | share of applied BZ dose eliminated through the gills [18]: about 59% | blood levels of methemoglobin (methemoglobin): increased blood levels of methemoglobin | Metabolic activity or viability (Alamar Blue) (ASG-10 [19]): did not affect

CCOC(=O)c1ccc(NO)cc1 [BZOH, Benzocaine hydroxylamine]
BZ metabolites produced in ASG-10 cells (ASG-10 [5]): produced

CN1CC[C@@]23CCCC[C@@H]2[C@@H]1Cc1ccc(O)cc13 [DOR, dextrophan]
Formation of metabolites of specific CYP substrates in ASG-10 (ASG-10 [1]): observed

CC(=O)NCCc1c[nH]c2ccc(O[C@@H]3O[C@H](C(=O)O)[C@@H](O)[C@H](O)[C@H]3O)cc12 [NAS-GlcA, N-acetyl serotonin β-D-glucuronide]
Formation of UGT-specific metabolites in SLMs and S9 [20]: low

C=CCN1CC[C@]23c4c5ccc(O[C@@H]6O[C@H](C(=O)O)[C@@H](O)[C@H](O)[C@H]6O)c4O[C@H]2C(=O)CC[C@@]3(O)[C@H]1C5 [NLX-GlcA, naloxone-3β-D glucuronide]
Formation of UGT-specific metabolites in SLMs and S9 [20]: highest metabolite level

Nc1ccc(C(=O)O)cc1 [PABA, p-aminobenzoic acid]
BZ metabolites in SLM and S9 incubations [21]: not detectable

CN1CCN(CCCN2c3ccccc3Sc3ccc(C(F)(F)F)cc32)CC1 [TFP, trifluoperazine dihydrochloride]
Formation of UGT-specific metabolites in SLMs and S9 [20]: not measurable

— article PMC10303838, “Atlantic Salmon Gill Epithelial Cell Line (ASG-10) as a Suitable Model for Xenobiotic Biotransformation” (Metabolites, 2023)
